This is an account of results in patent US9572315B2, “ALS inhibitor herbicide tolerant B. napus mutants” (BAYER INTELLECTUAL PROPERTY GMBH, priority 2011, dated 2017).

Experiment [1] deals with B. napus mutant FM 202 (ALS I A190V, ALS III W556L). The experiment in a line: ALS-inhibitor herbicide injury on B. napus, greenhouse spray trial, visual scoring. Format: in vivo, Brassica napus. The procedure: (§1) The individual components herbicide and surfactant with regard to type and application rate as stated in table I were added with stirring to a water application rate of 300 l/ha so that a homogeneous spray mixture was formed.
(§2) Seeds of B. napus were sown in a sandy loam soil and placed in a climate chamber in a greenhouse under good growth conditions (16 h light, temperature day 14° C., night: 8° C.). The plants were grown up to growth stage of BBCH 12 to BBCH 13. […] After the treatment, the plants were returned to the climate chamber.
(§3) Visual scoring was carried out using a percentage scale of 0%=no damage to 100%=all plants dead.

Experiment [2] has as its system B. napus wild type line SR002201 (NCIMB 41813). The description is as above. Format: in vivo, Brassica napus. The procedure:
as §1, §2, §3

Experiment [3] deals with plants regenerated from the clone FM202. Briefly: Growth of regenerated plants in presence of herbicide. Format: cell-based, Brassica napus. Conditions: high concentration of ALS inhibitor (selection at 10^−4 M).
Experiment [4] concerns B. napus plants of the present invention. The experiment in a line: Sensitivity to ALS inhibitor herbicide compared to wild type. Conditions: B. napus plant described in the Examples vs wild type. More on the design: species or system Brassica napus.
Where [5] appears, read: Brassica napus, 336 h, 30 g a.i./ha, spray at BBCH 12-13 with Mero 1 l/ha, visual scoring 14 days after application, 0%=no damage, 100%=all plants dead.
[6] abbreviates: Brassica napus, 336 h, 35 g a.i./ha, spray at BBCH 12-13 with Mero 1 l/ha, visual scoring 14 days after application, 0%=no damage, 100%=all plants dead.
Where [7] appears, read: Brassica napus, 336 h, 7 g a.i./ha, spray at BBCH 12-13 with Mero 1 l/ha, visual scoring 14 days after application, 0%=no damage, 100%=all plants dead.
Setting [8] is: 15 g a.i./ha, spray at BBCH 12-13 with Mero 1 l/ha, visual scoring 14 days after application, 0%=no damage, 100%=all plants dead.
The mark [9] stands for this setting: 20 g a.i./ha, spray at BBCH 12-13 with Mero 1 l/ha, visual scoring 14 days after application, 0%=no damage, 100%=all plants dead.
Where [10] appears, read: 30 g a.i./ha, spray at BBCH 12-13 with Mero 1 l/ha, visual scoring 14 days after application, 0%=no damage, 100%=all plants dead.

For `COc1cc(OC)nc(NC(=O)NS(=O)(=O)N(C)S(C)(=O)=O)n1` [Amidosulfuron], the pest or weed control at 30 g/ha in experiment [1] (setting [5]) stood at 0%; in experiment [2] (setting [5]) it was 93%. Take `COc1nc(C)nc(NC(=O)NS(=O)(=O)c2ccccc2Cl)n1` [Chlorsulfuron]: the “Herbicide injury on B. napus FM 202” value in experiment [1] (9 g a.i./ha, spray at BBCH 12-13 with Mero 1 l/ha, visual scoring 14 days after application, 0%=no damage, 100%=all plants dead) was 0%. For `COc1cc(OC)nc(NC(=O)[N-]S(=O)(=O)c2ncccc2C2=NOCCO2)n1.[Na+]` [Compound of formula (I)], in experiment [3], the “growth of plants regenerated from clone FM202 in presence of the ALS inhibitor” value is “able to grow”. For the molecule `CCOc1ccccc1OS(=O)(=O)NC(=O)Nc1nc(OC)cc(OC)n1` [Ethoxysulfuron], the “Herbicide injury on B. napus FM 202” value in experiment [1] (60 g a.i./ha, spray at BBCH 12-13 with Mero 1 l/ha, visual scoring 14 days after application, 0%=no damage, 100%=all plants dead) came to 0%. As to `COc1cc(OC)nc(NC(=O)NS(=O)(=O)c2cc(NC=O)ccc2C(=O)N(C)C)n1` [Foramsulfuron], the pest or weed control at 35 g/ha was 0% in experiment [1] (setting [6]) and 75% in experiment [2] (setting [6]). Further, the “times less sensitive to the ALS inhibitor herbicide compared to the wild type enzyme” value in experiment [4] was “at least 1000 times”. In the case of `COCc1cnc(C2=NC(C)(C(C)C)C(=O)N2)c(C(=O)O)c1` (stereo not drawn) [Imazamox], the “Herbicide injury on B. napus FM 202” value in experiment [1] (40 g a.i./ha, spray at BBCH 12-13 with Mero 1 l/ha, visual scoring 14 days after application, 0%=no damage, 100%=all plants dead) was 0%. With `COc1nc(C)nc(NC(=O)NS(=O)(=O)c2cc(I)ccc2C(=O)O)n1` [Iodosulfuron], the pest or weed control at 7 g/ha in experiment [1] (setting [7]) amounted to 0%; in experiment [2] (setting [7]) it was 95%.

On to `COc1cc(OC)nc(NC(=O)NS(=O)(=O)c2cc(CNS(C)(=O)=O)ccc2C(=O)O)n1` [Mesosulfuron], for which the “Herbicide injury on B. napus FM 202” value in experiment [1] (setting [8]) came out at 0%. Besides, the “Herbicide injury on B. napus SR002201” value in experiment [2] (setting [8]) is 90%.

In the case of `COc1nc(C)nc(=NC(=O)NS(=O)(=O)c2ccccc2C(=O)O)[nH]1` [Metsulfuron], the pest or weed control at 8 g/ha worked out at 0% in experiment [1] (Brassica napus, 336 h, read-out: Herbicide injury on B. napus FM 202) and 93% in experiment [2] (Brassica napus, 336 h, read-out: Herbicide injury on B. napus SR002201). With `COc1nn(C(=O)NS(=O)(=O)c2c(C(=O)O)csc2C)c(=O)n1C` [Thiencarbazone], the “Herbicide injury on B. napus FM 202” value in experiment [1] (setting [9]) worked out at 0%. For the same molecule, the “Herbicide injury on B. napus SR002201” value in experiment [2] (setting [9]) amounted to 90%. Turning to `COc1nc(C)nc(N(C)C(=O)NS(=O)(=O)c2ccccc2C(=O)O)n1` [Tribenuron], in experiment [1] (setting [10]), the “Herbicide injury on B. napus FM 202” value is recorded as 3%. Also, in experiment [2] (setting [10]), the “Herbicide injury on B. napus SR002201” value was 95%. Consider `Cc1cccc(C(=O)O)c1S(=O)(=O)NC(=O)Nc1nc(OCC(F)(F)F)nc(N(C)C)n1` [Triflusulfuron], for which, in experiment [1] (setting [9]), the “Herbicide injury on B. napus FM 202” value was 0%. Besides, in experiment [2] (setting [9]), the “Herbicide injury on B. napus SR002201” value worked out at 65%.
